Assay results: ChEMBL document CHEMBL3045322, “Synthesis and herbicidal activity of 2-acylimino-3-phenyl-1,3-thiazolines—A new family of bleaching herbicides—” (J Pestic Sci, 2006)

Assays:
[1] = test system: Ipomoea nil; assay: Herbicidal activity against Ipomoea nil (Japanese morning glory) in plastic pot assessed as killing at 500 g/ha under greenhouse for 20 days by pre-emergence herbicidal activity tests; assay type: functional
[2] = test system: Abutilon theophrasti; assay: Herbicidal activity against Abutilon theophrasti (velvetleaf) in plastic pot assessed as killing at 500 g/ha under greenhouse for 20 days by preemergence herbicidal activity tests; assay type: functional
[3] = test system: Echinochloa frumentacea; assay: Herbicidal activity against Echinochloa frumentacea (Japanese millet) in plastic pot assessed as killing at 500 g/ha under greenhouse for 20 days by preemergence herbicidal activity tests; assay type: functional
[4] = test system: Gossypium hirsutum; assay: Phytotoxicity against Gossypium hirsutum (cotton) at 62.5 g/ha by selectivity assay; assay type: organism-based; settings: in vivo
[5] = test system: Gossypium hirsutum; assay: Phytotoxicity against Gossypium hirsutum (cotton) at 125 g/ha by selectivity assay; assay type: organism-based; settings: in vivo
[6] = test system: Sida spinosa; assay: Herbicidal activity against Sida spinosa in field soil at 62.5 g/ha measured after 3 days by preemergence herbicidal activity tests; assay type: functional
[7] = test system: Sida spinosa; assay: Herbicidal activity against Sida spinosa in field soil at 125 g/ha measured after 3 days by preemergence herbicidal activity tests; assay type: functional
[8] = test system: Ipomoea nil; assay: Herbicidal activity against Ipomoea nil (Japanese morning glory) in field soil at 62.5 g/ha measured after 3 days by pre-emergence herbicidal activity tests; assay type: functional
[9] = test system: Ipomoea nil; assay: Herbicidal activity against Ipomoea nil (Japanese morning glory) in field soil at 125 g/ha measured after 3 days by pre-emergence herbicidal activity tests; assay type: functional
[10] = test system: Abutilon theophrasti; assay: Herbicidal activity against Abutilon theophrasti (velvetleaf) in field soil at 62.5 g/ha measured after 3 days by preemergence herbicidal activity tests; assay type: functional
[11] = test system: Abutilon theophrasti; assay: Herbicidal activity against Abutilon theophrasti (velvetleaf) in field soil at 125 g/ha measured after 3 days by preemergence herbicidal activity tests; assay type: functional
[12] = test system: Portulaca oleracea; assay: Herbicidal activity against Portulaca oleracea in field soil at 62.5 g/ha measured after 3 days by preemergence herbicidal activity tests; assay type: functional
[13] = test system: Portulaca oleracea; assay: Herbicidal activity against Portulaca oleracea in field soil at 125 g/ha measured after 3 days by preemergence herbicidal activity tests; assay type: functional
[14] = test system: Amaranthus viridis; assay: Herbicidal activity against Amaranthus viridis in field soil at 62.5 g/ha measured after 3 days by pre-emergence herbicidal activity tests; assay type: functional
[15] = test system: Amaranthus viridis; assay: Herbicidal activity against Amaranthus viridis in field soil at 125 g/ha measured after 3 days by pre-emergence herbicidal activity tests; assay type: functional
[16] = test system: Sorghum halepense; assay: Herbicidal activity against Sorghum halepense (Johnson grass) in field soil at 62.5 g/ha measured after 3 days by preemergence herbicidal activity tests; assay type: functional
[17] = test system: Sorghum halepense; assay: Herbicidal activity against Sorghum halepense (Johnson grass) in field soil at 125 g/ha measured after 3 days by preemergence herbicidal activity tests; assay type: functional
[18] = test system: Eleusine indica; assay: Herbicidal activity against Eleusine indica in field soil at 62.5 g/ha measured after 3 days by preemergence herbicidal activity tests; assay type: functional
[19] = test system: Eleusine indica; assay: Herbicidal activity against Eleusine indica in field soil at 125 g/ha measured after 3 days by preemergence herbicidal activity tests; assay type: functional
[20] = test system: Echinochloa crus-galli; assay: Herbicidal activity against Echinochloa crus-galli (barnyard grass) in field soil at 62.5 g/ha measured after 3 days by preemergence herbicidal activity tests; assay type: functional
[21] = test system: Echinochloa crus-galli; assay: Herbicidal activity against Echinochloa crus-galli (barnyard grass) in field soil at 125 g/ha measured after 3 days by preemergence herbicidal activity tests; assay type: functional

| Compound | Activity [1] | Activity [2] | Activity [3] | other results |
| --- | --- | --- | --- | --- |
| CCOC(=O)/N=c1/sc(CC)cn1-c1cccc(C(F)(F)F)c1 | 70% | 70% | 70% |  |
| Cc1cn(-c2cccc(C(F)(F)F)c2)/c(=N/C(=O)C(F)F)s1 | 100% | 100% | 100% | Activity [4]: 0%; Activity [5]: 0%; Activity [6]: 100%; Activity [7]: 100%; Activity [8]: 100%; Activity [9]: 100%; Activity [10]: 100%; Activity [11]: 100%; Activity [12]: 100%; Activity [13]: 100%; Activity [14]: 100%; Activity [15]: 100%; Activity [16]: 90%; Activity [17]: 90%; Activity [18]: 90%; Activity [19]: 90%; Activity [20]: 90%; Activity [21]: 100% |
| Cc1cn(-c2cccc(C(F)(F)F)c2)/c(=N/C(=O)C(F)(F)F)s1 | 100% | 100% | 100% | Activity [4]: 10%; Activity [5]: 30%; Activity [6]: 90%; Activity [7]: 100%; Activity [8]: 80%; Activity [9]: 100%; Activity [10]: 90%; Activity [11]: 100%; Activity [12]: 90%; Activity [13]: 90%; Activity [14]: 90%; Activity [15]: 100%; Activity [16]: 70%; Activity [17]: 90%; Activity [18]: 80%; Activity [19]: 90%; Activity [20]: 80%; Activity [21]: 100% |
| Cc1cn(-c2cccc(C(F)(F)F)c2)/c(=N/C(=O)C(F)(F)C(F)(F)F)s1 | 70% | 80% | 80% |  |
| CCOC(=O)/N=c1/scc(C)n1-c1cccc(C(F)(F)F)c1 | 0% | 0% | 0% |  |
| CCOC(=O)/N=c1/scc(Cl)n1-c1cccc(C(F)(F)F)c1 | 0% | 0% | 0% |  |
| CCOC(=O)/N=c1/scc(N)n1-c1cccc(C(F)(F)F)c1 | 10% | 0% | 30% |  |
| CCOC(=O)/N=c1/sc(C)cn1-c1cccc(C(F)(F)F)c1 | 90% | 90% | 90% |  |
| CCCc1cn(-c2cccc(C(F)(F)F)c2)/c(=N\C(=O)OCC)s1 | 40% | 0% | 60% |  |
| CCOC(=O)/N=c1/sc(C(C)C)cn1-c1cccc(C(F)(F)F)c1 | 10% | 0% | 0% |  |
| CCOC(=O)/N=c1/sc(Cl)cn1-c1cccc(C(F)(F)F)c1 | 60% | 70% | 90% |  |
| CCOC(=O)/N=c1/sc(Br)cn1-c1cccc(C(F)(F)F)c1 | 60% | 100% | 90% |  |
| CCOC(=O)/N=c1/sc(I)cn1-c1cccc(C(F)(F)F)c1 | 90% | 60% | 80% |  |
| CCOC(=O)/N=c1/sc(SC)cn1-c1cccc(C(F)(F)F)c1 | 50% | 40% | 70% |  |
| CCOC(=O)/N=c1/sc(C#N)cn1-c1cccc(C(F)(F)F)c1 | 0% | 0% | 20% |  |
| CCOC(=O)/N=c1/sc2c(n1-c1cccc(C(F)(F)F)c1)CCC2 | 0% | 0% | 0% |  |
| CCOC(=O)/N=c1/sc2c(n1-c1cccc(C(F)(F)F)c1)CCCC2 | 0% | 0% | 0% |  |
| CCOC(=O)/N=c1/sc(C)c(Br)n1-c1cccc(C(F)(F)F)c1 | 40% | 0% | 20% |  |
| CCOC(=O)/N=c1/sc(Br)c(Br)n1-c1cccc(C(F)(F)F)c1 | 40% | 0% | 20% |  |
| Cc1cn(-c2cccc(C(F)(F)F)c2)c(=N)s1 | 0% | 0% | 40% |  |

| Compound | Activity [1] | Activity [2] | Activity [3] | other results |
| --- | --- | --- | --- | --- |
| C/N=c1/sc(C)cn1-c1cccc(C(F)(F)F)c1 | 0% | 0% | 0% |  |
| Cc1cn(-c2cccc(C(F)(F)F)c2)/c(=N/c2ccc(Cl)cc2)s1 | 0% | 0% | 0% |  |
| CSC(=S)/N=c1/sc(C)cn1-c1cccc(C(F)(F)F)c1 | 40% | 30% | 50% |  |
| CC(=O)/N=c1/sc(C)cn1-c1cccc(C(F)(F)F)c1 | 100% | 90% | 100% |  |
| CC(=S)/N=c1/sc(C)cn1-c1cccc(C(F)(F)F)c1 | 0% | 0% | 10% |  |
| CCNC(=O)/N=c1/sc(C)cn1-c1cccc(C(F)(F)F)c1 | 40% | 40% | 80% |  |
| CCNC(=S)/N=c1/sc(C)cn1-c1cccc(C(F)(F)F)c1 | 0% | 0% | 20% |  |
| Cc1cn(-c2cccc(C(F)(F)F)c2)/c(=N\C(=O)N(C)C)s1 | 20% | 30% | 70% |  |
| Cc1cn(-c2cccc(C(F)(F)F)c2)/c(=N\C(=O)Nc2ccccc2)s1 | 40% | 60% | 60% |  |
| Cc1cn(-c2cccc(C(F)(F)F)c2)/c(=N\S(C)(=O)=O)s1 | 80% | 80% | 90% |  |
| Cc1cn(-c2cccc(C(F)(F)F)c2)/c(=N/C#N)s1 | 50% | 60% | 90% |  |
| CCC(=O)/N=c1\sc(C)cn1-c1cccc(C(F)(F)F)c1 | 60% | 50% | 70% |  |
| CCCC(=O)/N=c1\sc(C)cn1-c1cccc(C(F)(F)F)c1 | 40% | 20% | 40% |  |
| Cc1cn(-c2cccc(C(F)(F)F)c2)/c(=N/C(=O)C(C)C)s1 | 40% | 60% | 70% |  |
| Cc1cn(-c2cccc(C(F)(F)F)c2)/c(=N/C(=O)C(C)(C)C)s1 | 60% | 40% | 50% |  |
| Cc1cn(-c2cccc(C(F)(F)F)c2)/c(=N/C(=O)C2CC2)s1 | 60% | 40% | 90% |  |
| Cc1cn(-c2cccc(C(F)(F)F)c2)/c(=N/C(=O)CCl)s1 | 0% | 0% | 20% |  |
| Cc1cn(-c2cccc(C(F)(F)F)c2)/c(=N/C(=O)C(Cl)Cl)s1 | 0% | 0% | 30% |  |
| Cc1cn(-c2cccc(C(F)(F)F)c2)/c(=N/C(=O)CF)s1 | 90% | 70% | 90% |  |
| CCOC(=O)/N=c1/sccn1-c1cccc(C(F)(F)F)c1 | 20% | 20% | 50% |  |
